Source: patent US10166142B2, “Small molecule delivery with implantable therapeutic device” (ForSight Vision4, Inc., priority 2011, dated 2019)
Structures can show the parent of a compound that is named as a salt. Where two headings read alike, the source gives them in different places.

Assays:
[1] = Solubility of dorzolamide suspension formulation, Example A; assay type: physicochemical; details: aqueous buffer, thermodynamic from solid; PBS+0.02% sodium azide, pH 7.4, 37C; read-out: dissolved concentration (i.e., solubility)
[2] = Diffusion coefficient in water (literature value / estimate by MW scaling); assay type: physicochemical; details: estimated, at 37C
Text: If the reservoir solution is aqueous or has a viscosity similar to water, the value for the diffusion coefficient of the therapeutic agent (TA) in water at the temperature of interest may be used. […] (Molokhia et al, Exp Eye Res 2008): DTA,37C=DBSA,20C(η20C/η37C)(MWBSA/MWTA)^1/3 where
MW refers to the molecular weight of either BSA or the test compound and η is the viscosity of water.
Small molecules have a diffusion coefficient similar to fluorescein (MW=330, D=4.8 to 6 e-6 cm^2/s from Stay, M S et al. Pharm Res 2003, 20(1), pp. 96-102). For example, the small molecule may comprise a glucocorticoid such as triamcinolone acetonide having a molecular weight of about 435.
(§1) The volume of the device was approximately 25 uL.
as §1

[3] = rabbit and monkey (Gaudreault et al), cited from earlier work
[4] = cited from earlier work
[5] = system: laser photocoagulation treatment-induced Grade IV choroidal neovascularization (CNV) Lesions; details: intravitreal injection, all doses tested (Z. Yao et al., ARVO 2009); cited from earlier work

CCN[C@H]1C[C@H](C)S(=O)(=O)c2sc(S(N)(=O)=O)cc21 [Dorzolamide, dorzolamide Hydrochloride]
solubility [1]: 9000 µg/mL

O=C(c1ccccc1)c1ccc2n1CCC2C(=O)O (centres unmarked) [Ketorolac, Ketorolac Tromethamine]
diffusion coefficient [2]: 6×10^−6 cm^2/s

CN(Cc1cnc2nc(N)nc(N)c2n1)c1ccc(C(=O)N[C@@H](CCC(=O)O)C(=O)O)cc1 [Methotrexate, methotrexate]
diffusion coefficient [2]: 5×10^−6 cm^2/s

ranibizumab [Lucentis]
half-life in vitreous [3]: about two to four days
half-life in vitreous ([3]; listed as ranibizumab): approximately 3 days
half-life in vitreous ([4]; human eye (Lucentis package insert)): ~220 h
Half-life ([4]; human vitreous, model parameter for FIGS. 119 to 124): 220 h
development of Grade IV CNV lesions [5]: completely inhibit
